The target of one data set is T1, HER2 (Homo sapiens, UniProt P04626).
T1 construct: endogenous in cells; host or cells: Calu3 tumor cell line
Briefly: Inhibition of HER2 phosphorylation in Calu3 tumor cell line. It counts as cell-based. The conditions noted are these: Calu3 cells; for percentage of inhibition of phosphorylation compared with the reference compound: 1 μM compound, versus Example 4, p. 88, WO 01/77107; for inhibition at 1 µM: Calu-3, read-out: Percent inhibition of HER2-phosphorylation. The method, then: Inhibition of HER2 phosphorylation in Calu3 tumor cell line.
2×10^5 Calu3 cells per well were plated in a 12-well plate. After 4 days cells were starved for 16 h in DMEM(Dulbecco's Modified Eagle Medium)/0.5% FCS/1% Glutamine. During this time cells were incubated with 1 μM of a compound according to the present invention. Afterwards cells were lysed in lyses buffer containing 1% Triton, 10% Glycerol, 1 mM EGTA, 1.5 mM MgCl2, 150 mM NaCl, 50 mM Hepes pH 7.5, 1 mM PMSF, 10 μg/mL Aprotinin and […] Orthovanadate. Cell lysates were analyzed on a SDS PAGE and after transfer to a nitrocellulose membrane detected with a rabbit antibody specifically recognizing the pY 1248 in HER2 (Cell Signaling). After incubation with an anti rabbit antibody coupled to POD (Biorad) (Peroxidase available from Biorad, Munich, Germany) signals were detected by chemiluminescence (ECL,Amersham). Inhibition of HER2 phosphorylation is calculated as percentage of the DMSO treated control. This percentage is calculated according to the following formula: Inhibition in %=100-(Phosphorylated-HER2-Signal of Test Sample* 100/Phosphorylated-HER2-Signal DMSO-control).

Where [1] appears, read: compound concentration 1 μM, 16 h, pY 1248 in HER2, percentage of the DMSO treated control.

T1 sequence (P04626 23-1255): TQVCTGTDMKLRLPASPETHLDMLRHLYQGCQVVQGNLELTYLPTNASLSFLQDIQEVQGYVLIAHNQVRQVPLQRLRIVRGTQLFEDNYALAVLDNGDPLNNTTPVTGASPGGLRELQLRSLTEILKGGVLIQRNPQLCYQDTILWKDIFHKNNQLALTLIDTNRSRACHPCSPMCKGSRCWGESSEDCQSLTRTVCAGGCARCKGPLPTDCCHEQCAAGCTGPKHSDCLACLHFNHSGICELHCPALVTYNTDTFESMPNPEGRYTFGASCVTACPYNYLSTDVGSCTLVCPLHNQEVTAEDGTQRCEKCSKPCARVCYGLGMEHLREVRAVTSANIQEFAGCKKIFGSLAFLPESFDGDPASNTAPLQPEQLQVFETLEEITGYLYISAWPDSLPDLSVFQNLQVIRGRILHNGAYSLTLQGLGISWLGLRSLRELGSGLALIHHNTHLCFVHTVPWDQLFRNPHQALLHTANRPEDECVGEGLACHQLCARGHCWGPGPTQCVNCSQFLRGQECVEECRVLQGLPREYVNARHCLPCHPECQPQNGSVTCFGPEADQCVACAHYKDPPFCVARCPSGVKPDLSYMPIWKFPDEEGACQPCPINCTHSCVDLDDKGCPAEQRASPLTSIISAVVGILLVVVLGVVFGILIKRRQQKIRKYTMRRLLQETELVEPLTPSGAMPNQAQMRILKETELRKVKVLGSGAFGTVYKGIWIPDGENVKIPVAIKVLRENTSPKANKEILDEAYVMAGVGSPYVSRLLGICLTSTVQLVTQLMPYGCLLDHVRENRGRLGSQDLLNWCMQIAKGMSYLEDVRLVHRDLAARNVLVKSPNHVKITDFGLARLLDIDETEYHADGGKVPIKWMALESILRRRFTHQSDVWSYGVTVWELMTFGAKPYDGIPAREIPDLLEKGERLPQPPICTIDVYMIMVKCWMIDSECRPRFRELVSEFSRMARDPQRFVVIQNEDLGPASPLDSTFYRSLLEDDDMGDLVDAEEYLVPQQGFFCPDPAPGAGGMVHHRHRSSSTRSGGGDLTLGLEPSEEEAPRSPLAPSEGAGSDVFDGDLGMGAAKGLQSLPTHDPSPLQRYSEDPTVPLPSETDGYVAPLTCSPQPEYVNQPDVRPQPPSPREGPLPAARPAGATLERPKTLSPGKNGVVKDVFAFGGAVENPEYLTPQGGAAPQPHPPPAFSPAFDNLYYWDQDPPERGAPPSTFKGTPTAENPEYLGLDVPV

As usually defined, the melting point is the temperature, or range, at which the solid turns liquid. Regarding `[O-][S+](c1ccc(/C=C/c2nc(COc3ccc(CNCCn4ccnn4)cc3)co2)cc1)C(F)(F)F` (stereo not shown) [Example 3, (2-[1,2,3]Triazol-1-yl-ethyl)-(4-{2-[(E)-2-(4-trifluoromethanesulfinyl-phenyl)-vinyl]-oxazol-4-ylmethoxy}-benzyl)-amine], the melting point was in the range of 111 to 113 °C.
Compound `O=S(=O)(NCCn1ccnn1)c1ccc(OCc2coc(C=Cc3ccc([S+]([O-])C(F)(F)F)cc3)n2)cc1` (stereo not shown) [Example 13, N-(2-[1,2,3] Triazol-1-yl-ethyl)-4-{2-[2-(4-trifluoromethanesulfinyl-phenyl)-vinyl]-oxazol-4-ylmethoxy}-benzenesulfonamide] yielded a melting point of 172 to 174 °C.
On the same count and under the same terms, the same measure for `Cc1cc(OCc2coc(C=Cc3ccc(S(=O)(=O)C(F)(F)F)cc3)n2)ccc1CCCCn1ccnn1` [Example 20, 1-[4-(2-Methyl-4-{2-[2-(4-trifluoromethanesulfonyl-phenyl)-vinyl]-oxazol-4-ylmethoxy}-phenyl)-butyl]-1H-[1,2,3]triazole]: 140 to 142 °C.
Take `[O-][S+](c1ccc(C=Cc2nc(COc3ccc(CCCCn4ccnc4)cc3)co2)cc1)C(F)(F)F` (stereo not shown) [example 1, 4-[4-(4-Imidazol-1-yl-butyl)-phenoxymethyl]-2′-[2-(4-trifluoromethanesulfinyl-phenyl)-vinyl]-oxozole]: the “percentage of inhibition of phosphorylation compared with the reference compound” value at HER2 was “higher percentage of inhibition of phosphorylation”. Also, the “Percent inhibition of HER2-phosphorylation” value at HER2 (setting [1]) is on record as 92.5%.
The inhibition is the drop in the measured response relative to a control, in per cent. `[O-][S+](c1ccc(/C=C/c2nc(COc3ccc(CCCCn4ccnn4)cc3)co2)cc1)C(F)(F)F` (stereo not shown) [example 4, 1-[4-(4-{2-[(E)-2-(-4-Trifluoromethanesulfinyl-phenyl)-vinyl]-oxazol-4-ylmethoxy}-phenyl)-butyl]-1H-[1,2,3]triazole] came in with a melting point of 122 to 123 °C. The “percentage of inhibition of phosphorylation compared with the reference compound” value on HER2 is reported as “higher percentage of inhibition of phosphorylation”. On HER2 (setting [1]), the inhibition at 1 µM was found to be 94.4%.
For `O=S(=O)(c1ccc(/C=C/c2nc(COc3ccc(CCCCn4ccnn4)cc3)co2)cc1)C(F)(F)F` [example 5, 1-[4-(4-{2-[(E)-2-(-4-Trifluoromethanesulfonyl-phenyl)-vinyl]-oxazol-4-ylmethoxy}-phenyl)-butyl]-1H-[1,2,3]triazole] the same measures were 133 to 135 °C, “higher percentage of inhibition of phosphorylation” and 82.9%.
As to `[O-][S+](c1ccc(/C=C/c2nc(COc3ccc(CCCCc4nn[nH]n4)cc3)co2)cc1)C(F)(F)F` (stereo not shown) [example 7, 5-[4-(4-{2-[(E)-2-(-4-Trifluoromethanesulfinyl-phenyl)-vinyl]-oxazol-4-ylmethoxy}-phenyl)-butyl]-2H-tetrazole], the “percentage of inhibition of phosphorylation compared with the reference compound” value at HER2 was “higher percentage of inhibition of phosphorylation”. For the same compound, at HER2 (setting [1]), the inhibition at 1 µM was 52.9%.
The compound `[O-][S+](c1ccc(/C=C/c2nc(COc3ccc(CCCCn4ccnn4)cc3)cs2)cc1)C(F)(F)F` (stereo not shown) [example 15, 1-[4-(4-{2-[(E)-2-(4-Trifluoromethanesulfinyl-phenyl)-vinyl]-thiazol-4-ylmethoxy}-phenyl)-butyl]-1H-[1,2,3]triazole] returned a melting point of 118 to 119 °C. For the same compound, the “percentage of inhibition of phosphorylation compared with the reference compound” value on HER2 is “higher percentage of inhibition of phosphorylation”. Moreover, the inhibition at 1 µM on HER2 (setting [1]) worked out at 73.6%.

Source of the values: patent publication US7405231B2, “Oxidized thioether derivatives” (Hoffmann-La Roche Inc., priority 2004, dated 2008).
